Experimental findings from ChEMBL document CHEMBL1201862, “PubChem BioAssay data set” (2004) are described below.

Activity calls are given as the source filed them. Unless noted, no cut-off for these calls is given here.

For assay [1], the target named is Mitogen-activated protein kinase 1 (Homo sapiens, UniProt P28482). The format is functional.
The target in assay [2] is Protein-tyrosine kinase 2-beta (Homo sapiens, UniProt Q14289). The format is functional.
Protein-tyrosine kinase 2-beta, sequence (Q14289 whole entry): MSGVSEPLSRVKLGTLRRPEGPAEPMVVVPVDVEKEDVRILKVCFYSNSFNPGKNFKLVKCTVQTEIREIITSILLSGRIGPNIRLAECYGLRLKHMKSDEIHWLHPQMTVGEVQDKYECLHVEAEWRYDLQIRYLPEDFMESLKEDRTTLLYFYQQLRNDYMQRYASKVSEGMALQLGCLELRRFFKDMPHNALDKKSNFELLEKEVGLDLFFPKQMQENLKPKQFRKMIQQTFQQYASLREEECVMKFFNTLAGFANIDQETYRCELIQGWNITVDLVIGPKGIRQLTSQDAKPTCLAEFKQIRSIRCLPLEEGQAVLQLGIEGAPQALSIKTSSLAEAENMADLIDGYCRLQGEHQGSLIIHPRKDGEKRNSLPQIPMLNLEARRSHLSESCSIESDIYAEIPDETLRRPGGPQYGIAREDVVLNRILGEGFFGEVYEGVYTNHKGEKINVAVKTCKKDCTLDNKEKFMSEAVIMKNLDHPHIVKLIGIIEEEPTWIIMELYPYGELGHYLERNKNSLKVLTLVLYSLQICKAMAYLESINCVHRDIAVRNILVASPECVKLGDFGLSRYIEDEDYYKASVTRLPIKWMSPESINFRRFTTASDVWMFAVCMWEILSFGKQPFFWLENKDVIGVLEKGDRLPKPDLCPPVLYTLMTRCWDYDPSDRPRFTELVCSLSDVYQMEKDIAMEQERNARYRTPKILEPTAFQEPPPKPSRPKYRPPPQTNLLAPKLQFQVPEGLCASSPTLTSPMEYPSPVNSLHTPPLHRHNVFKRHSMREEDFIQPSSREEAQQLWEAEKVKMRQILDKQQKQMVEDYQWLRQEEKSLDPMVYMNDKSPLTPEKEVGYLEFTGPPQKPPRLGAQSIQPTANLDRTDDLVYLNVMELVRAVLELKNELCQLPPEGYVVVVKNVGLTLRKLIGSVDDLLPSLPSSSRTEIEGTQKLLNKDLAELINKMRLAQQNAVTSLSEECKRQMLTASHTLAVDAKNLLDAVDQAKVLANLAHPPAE

Mitogen-activated protein kinase 1, sequence (P28482 whole entry): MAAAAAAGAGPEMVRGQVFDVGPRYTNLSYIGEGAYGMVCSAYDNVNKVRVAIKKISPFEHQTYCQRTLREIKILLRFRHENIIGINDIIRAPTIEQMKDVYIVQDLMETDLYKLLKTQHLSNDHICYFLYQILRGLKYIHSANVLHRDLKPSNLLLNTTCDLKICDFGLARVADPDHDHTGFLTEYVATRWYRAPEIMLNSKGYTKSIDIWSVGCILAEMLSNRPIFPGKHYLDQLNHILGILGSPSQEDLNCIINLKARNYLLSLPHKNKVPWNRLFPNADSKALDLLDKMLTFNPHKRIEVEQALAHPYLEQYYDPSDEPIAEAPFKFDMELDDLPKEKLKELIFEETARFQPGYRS

Turning to `Cc1n[nH]c2ccc(-c3cncc(OCC(N)Cc4cccc(Cl)c4)c3)cc12` (configuration not stated), the values for the Ki in assay [1] and in assay [2] were 79.4 nM (active) and 501 nM (active), respectively.

In general, Ki refers to the dissociation constant of the complex between target and ligand, obtained from inhibition or displacement.
